Experimental data taken from patent publication US11834698B2, “Process for determining enzyme activity in a cell by activity-based reporter gene technology (ABRGT)” (INDIAN INSTITUTE OF SCIENCE EDUCATION AND RESEARCH, priority 2018, dated 2023).
Values joined by “and” are separate entries in the source; they are usually repeats but may differ in a detail not shown here. Identical values can stand only once.

Assays:
caspase-3 = target: T1, caspase-3 (Homo sapiens, UniProt P42574); conditions: previously shown; cited from earlier work
T1 sequence (P42574 29-175 limits assumed): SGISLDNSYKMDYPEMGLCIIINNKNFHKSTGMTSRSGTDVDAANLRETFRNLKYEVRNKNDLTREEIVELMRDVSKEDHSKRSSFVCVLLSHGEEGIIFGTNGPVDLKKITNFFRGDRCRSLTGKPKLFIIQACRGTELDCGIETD
T1 sequence (P42574 176-277 limits assumed): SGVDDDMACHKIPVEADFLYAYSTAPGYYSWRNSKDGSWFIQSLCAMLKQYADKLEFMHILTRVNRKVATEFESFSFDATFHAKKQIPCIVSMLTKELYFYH

caspase-3 GFPspark [1] = target: T2, caspase-3 GFPspark (Homo sapiens, UniProt P42574); test: AbRGT FRET imaging / acceptor photobleaching, caspase-3 GFPspark in HEK-293 cells; format: cell-based; design: host or cells: HEK-293; conditions: HEK-293, STS 1 μM 10 h, probe 1 μM
T2 sequence (P42574 29-175 limits assumed): T1 sequence (P42574 29-175 limits assumed)
T2 sequence (P42574 176-277 limits assumed): T1 sequence (P42574 176-277 limits assumed)

[2] = test system: enhanced green fluorescent protein (EGFP); test: EGFP control for random GFP-rhodamine interaction in MCF-7 cells; format: cell-based; conditions: MCF-7, EGFP plasmid, STS 1 μM 4 h, labelled with probe 1
Experimental: FIG. 2 depicts (a) a schematic representation of AbRGT in determining the specific activation of caspase-3 GFPspark tagged enzyme by FRET effect utilizing Rh-VAD-FMK (probe 1). (b) The fluorescence signal was collected in GFP, FRET and Rhodamine (Rh) channels. MCF-7 cells transfected with caspase-3 GFPspark treated with (i) 1 μM STS for 4 h or (ii) 1 μg/ml TRAIL for 5 h and then labelled with probe 1. (iii) Un-transfected MCF-7 cells were treated with 1 μM STS for 4 h and then labelled with the probe 1. MCF-7 cells transfected with enhanced green fluorescent protein (EGFP) plasmid treated (iv) with 1 μM STS or (v) without STS for 4 h and then labelled with probe 1, scale bar, 10 a.u. […] Images for GFP and rhodamine fluorescence signals were collected in GFP and FRET channels pre- and post-bleaching of rhodamine signals. (d) Quantification of change in GFP fluorescence intensity after rhodamine photo-bleaching in both unbleached control region and rhodamine bleached region, region of interest (ROI), area under the white square. […]
To rule out that the obtained FRET signal in [FIG. 2b (i)] is not because of random physical interaction between GFPspark and rhodamine dye, MCF-7 cells were transfected with a plasmid encoding for enhanced green fluorescent protein (EGFP). […] The calculated FRET efficiency for (n=15 cells) is 35±1%. […] The calculated FRET efficiency was 35% [FIG. 7(b)]. […]

Jurkat cell lysate = test: In-gel fluorescence assay of off-target labelling in Jurkat cells; format: cell-based; conditions: Jurkat cell lysate 2 μg/μL, probe 1 μM
Experimental: FIG. 5 depicts cellular off-target labelling of the probe 1 shown in Jurkat cells 2.5 million Jurkat cells were incubated with 1 μM probe 1 in the (b) presence or (c) the absence of STS (1 μM) for 6 h. Cells are incubated (a) without and (d) with the probe 1 and STS. Cells comprising labelled enzymes were lysed and analyzed by 12% SDS-PAGE followed by scanning for rhodamine fluorescence (Ex: 561 nm, Em: 605 nm) with a flat-bed laser scanner.
To rule out that the obtained FRET signal in [FIG. 2b (i)] is not because of random physical interaction between GFPspark and rhodamine dye, MCF-7 cells were transfected with a plasmid encoding for enhanced green fluorescent protein (EGFP). EGFP transfected MCF-7 cells were treated with STS (1 μM) for 4 h, labelled with the probe 1. […] In-gel fluorescence assay was also performed to validate the multiple off-targets labelling of probe 1 which has also been shown in the previous reports. […] The calculated FRET efficiency for (n=15 cells) is 35±1%. […] Caspase-3 activation was also monitored using probe 2 as fABP which is different from probe 1 in terms of peptide recognition sequence; DEVD in exchange for VAD as DEVD peptide sequence is more specific for caspases as compared to VAD. Probe 2 yielded a similar pattern of fluorescence signal in GFPspark, FRET and Rh channel as that of probe 1 [FIG. 7(a)]. The calculated FRET efficiency was 35% [FIG. 7(b)]. […]

caspase-3 GFPspark [3] = target: T2, caspase-3 GFPspark; test: AbRGT FRET imaging / acceptor photobleaching, caspase-3 GFPspark in HeLa cells; format: cell-based; design: host or cells: HeLa; conditions: STS 1 μM 10 h, probe 1 μM

Substance: Rhodamine-VAD-fluoromethyl ketone [probe 1]
- affinity for caspase-3 (caspase-3): moderate affinity
- selectivity for caspase-3 (caspase-3): low selectivity
- calculated FRET efficiency (caspase-3 GFPspark [1]): 32.5±2% and 33±2%
- rise in GFP intensity in the ROI (caspase-3 GFPspark [1]): 72 a.u.
- fluorescence signal in FRET channel, EGFP transfected cells [2]: no fluorescence signal was observed
- off-target labelling, bands on SDS-PAGE gel upon rhodamine excitation (Jurkat cell lysate): multiple bands
- calculated FRET efficiency (caspase-3 GFPspark [3]): 32±2%
- rise in GFP intensity in the ROI (caspase-3 GFPspark [3]; n=15 cells): 52±5 a.u.
